What was measured:
[1] = tested on: women with ER+, HER2− advanced breast cancer; test: Digital, centrally read triplicate ECGs (resting heart rate, QTcF); design: species or system human; conditions: in vivo
Excerpt: Digital, centrally read, triplicate ECGs were obtained throughout the study.

[2] = Plasma pharmacokinetics by validated LC/MS-MS (cycle 1, day 15); format: in vivo; conditions: human, oral; for AUC / Cmax: Cycle 1 Day 15, geomean; for Tmax: Cycle 1 Day 15, median
Method: Details of safety and efficacy assessments and of ctDNA sampling and assessments have been described previously ([37]). For PK analyses, plasma concentrations of camizestrant, abemaciclib, palbociclib, and ribociclib were determined using validated LC/MS-MS.
Details of assessments and analysis sets have been described previously ([38]). Briefly, safety was assessed in the safety analysis set, and efficacy and antitumor activity were assessed in the evaluable-for-response set. PK was assessed in the PK analysis set, which included all patients who provided at least one quantifiable postdose PK concentration for either camizestrant or any of the other agents evaluated.

[3] = 75 mg, camizestrant 75 mg monotherapy
[4] = 150 mg, camizestrant 150 mg monotherapy
[5] = 300 mg, camizestrant 300 mg monotherapy
[6] = camizestrant 75 mg + abemaciclib
[7] = camizestrant 75 mg + palbociclib
[8] = camizestrant 75 mg + ribociclib (400 mg)
[9] = camizestrant 75 mg + ribociclib (600 mg)
[10] = camizestrant 150 mg + abemaciclib
[11] = camizestrant 150 mg + palbociclib
[12] = camizestrant 300 mg + palbociclib

AUC [2, 3]: 862 ng·h/mL
Cmax [2, 3]: 64.7 ng/mL
Tmax [2, 3]: 3.72 h
AUC [2, 4]: 2160 ng·h/mL
Cmax [2, 4]: 166 ng/mL
Tmax [2, 4]: 2.17 h
AUC [2, 5]: 4780 ng·h/mL
Cmax [2, 5]: 376 ng/mL
Tmax [2, 5]: 3 h
half-life ([2]; across combinations, PK sampled up to 24 hours, likely underestimated, read-out: Estimated half-life of camizestrant): 9.5 to 17 h
AUC [2, 6]: 1120 ng·h/mL
Cmax [2, 6]: 85.4 ng/mL
Tmax [2, 6]: 4 h
AUC [2, 7]: 1200 ng·h/mL
Cmax [2, 7]: 93.9 ng/mL
Tmax [2, 7]: 4 h
AUC [2, 8]: 2280 ng·h/mL
Cmax [2, 8]: 154 ng/mL
Tmax [2, 8]: 3.6 h
AUC [2, 9]: 2750 ng·h/mL
Cmax [2, 9]: 179 ng/mL
Tmax [2, 9]: 4 h
AUC [2, 10]: 2050 ng·h/mL
Cmax [2, 10]: 159 ng/mL
Tmax [2, 10]: 4 h
AUC [2, 11]: 2420 ng·h/mL
Cmax [2, 11]: 189 ng/mL
Tmax [2, 11]: 3.92 h
AUC [2, 12]: 4940 ng·h/mL
Cmax [2, 12]: 386 ng/mL
Tmax [2, 12]: 4 h
SMILES: C[C@@H]1Cc2c(ccc3[nH]ncc23)[C@@H](c2ccc(NC3CN(CCCF)C3)cn2)N1CC(F)(F)F [camizestrant]
Time of gradual decrease in resting HR to stable nadir [1]: approximately 14 days

From publication PMC12521909, “Camizestrant in Combination with Three Globally Approved CDK4/6 Inhibitors in Women with ER+, HER2− Advanced Breast Cancer: Results from SERENA-1” (Clinical Cancer Research, 2025)
